Measurements from ChEMBL document CHEMBL5375954, “Discovery and Evaluation of C6-Substituted Pyrazolopyrimidine-Based Bisphosphonate Inhibitors of the Human Geranylgeranyl Pyrophosphate Synthase and Evaluation of Their Antitumor Efficacy in Multiple Myeloma, Pancreatic Ductal Adenocarcinoma, and Colorectal Cancer” (J Med Chem, 2023).
Active and inactive are the calls of the source. The calls are words filed in the database; no cut-off is given here.

Assays:
[1] = system: RPMI-8226; experiment: Antitumor activity against human RPMI-8226 cells xenografted in NSG mouse assessed as reduction in tumor volume at 3 mg/kg, ip administered 3 times a week for 26 days; format: functional, organism-based; details: time 26.0 day
[2] = system: HCT-116; experiment: Induction of apoptosis in human HCT-116 cells assessed as live cells at 1 uM incubated for 72 hrs in presence of geranylgeraniol by APC-Annexin-V/7-AAD staining based flow cytometry (reference value: 95.3%); format: functional
[3] = Hepatotoxicity in female NSG mouse xenografted with human RPMI-8226 cells assessed as foci of necrosis at 3 mg/kg, ip administered 3 times a week for 26 days and measured 48 hrs post last dose by H and E staining based assay; format: toxicity, organism-based; details: in vivo, 672 h, time 28 day
[4] = Hepatotoxicity in female NSG mouse xenografted with human RPMI-8226 cells assessed as vasculitis or perivasculitis at 3 mg/kg, ip administered 3 times a week for 26 days and measured 48 hrs post last dose by H and E staining based assay; format: toxicity, organism-based; details: in vivo, 672 h, time 28 day
[5] = Toxicity in NSG mouse xenografted with human MIA PaCa-2 cells assessed as inflammation at site of injection at 3 mg/kg, ip administered 3 times a week for 26 days and measured daily; format: organism-based; details: in vivo, time 26 day
[6] = Metabolic stability in human liver microsomes assessed as compound remaining incubated for 45 mins in presence of NADPH by LC-MS/MS analysis; format: ADME, Microsome; details: 0.75 h
[7] = target: Cytochrome P450 3A4 (Homo sapiens, UniProt P08684); experiment: Inhibition of CYP3A4 (unknown origin); format: ADME
[8] = system: HCT-116; experiment: Induction of apoptosis in human HCT-116 cells assessed as necrotic cells at 1 uM incubated for 72 hrs by APC-Annexin-V/7-AAD staining based flow cytometry (reference value: 2.99%); format: functional
[9] = system: MIA PaCa-2; experiment: Induction of apoptosis in human MIA PaCa-2 cells at 1 uM incubated for 72 hrs in presence of geranylgeraniol by APC-Annexin-V/7-AAD staining based flow cytometry; format: functional, cell-based
[10] = system: MIA PaCa-2; experiment: Induction of apoptosis in human MIA PaCa-2 cells at 1 uM incubated for 72 hrs by APC-Annexin-V/7-AAD staining based flow cytometry relative to control; format: functional
[11] = Cytotoxicity against wild type mouse normal ductal organoid [N(10128)] at 1 uM incubated for 72 hrs by CellTiter-Glo luminescence based analysis; format: toxicity, tissue-based
[12] = system: MIA PaCa-2; experiment: Induction of apoptosis in human MIA PaCa-2 cells assessed as early apoptotic cells at 1 uM incubated for 72 hrs by APC-Annexin-V/7-AAD staining based flow cytometry (reference value: 1.26%); format: functional
[13] = system: HCT-116; experiment: Induction of apoptosis in human HCT-116 cells at 1 uM incubated for 72 hrs by APC-Annexin-V/7-AAD staining based flow cytometry relative to control; format: functional
[14] = Hepatotoxicity in female NSG mouse xenografted with human RPMI-8226 cells assessed as serum AST level at 3 mg/kg, ip administered 3 times a week for 26 days and measured 48 hrs post last dose (reference value: 84 to 229 IU/L); format: toxicity, organism-based; details: in vivo, 672 h, time 28 day
[15] = system: HCT-116; experiment: cells; details: Homo sapiens, HCT-116, 72 h
[16] = MRT in Sprague-Dawley rat at 3 mg/kg, iv measured for 24 hrs by LC-MS/MS analysis; format: ADME, organism-based; details: in vivo
[17] = target: Cytochrome P450 2C9 (Homo sapiens, UniProt P11712); experiment: Inhibition of CYP2C9 (unknown origin); format: ADME
[18] = system: MIA PaCa-2; experiment: Induction of apoptosis in human MIA PaCa-2 cells assessed as live cells at 1 uM incubated for 72 hrs by APC-Annexin-V/7-AAD staining based flow cytometry (reference value: 97.7%); format: functional
[19] = Toxicity in NSG mouse xenografted with human MIA PaCa-2 cells assessed as signs of distress at 3 mg/kg, ip administered 3 times a week for 26 days and measured daily; format: organism-based; details: in vivo, time 26 day
[20] = Metabolic stability in Sprague-Dawley rat liver microsomes assessed as compound remaining incubated for 45 mins in absence of NADPH by LC-MS/MS analysis; format: ADME, Microsome; details: 0.75 h
[21] = system: HCT-116; experiment: Induction of apoptosis in human HCT-116 cells assessed as necrotic cells at 1 uM incubated for 72 hrs in presence of geranylgeraniol by APC-Annexin-V/7-AAD staining based flow cytometry (reference value: 2.99%); format: functional
[22] = system: HCT-116; experiment: Induction of apoptosis in human HCT-116 cells assessed as early apoptotic cells at 1 uM incubated for 72 hrs in presence of geranylgeraniol by APC-Annexin-V/7-AAD staining based flow cytometry (reference value: 1.16%); format: functional
[23] = system: KMS-28PE; experiment: Antiproliferative activity against human KMS-28-PE cells harboring KRAS G12A mutant at 0.1 to 10000 nM incubated for 72 hrs by MTS assay; format: functional, cell-based; details: dose 0.1-10000 nM

Chain of Cytochrome P450 3A4 (P08684 whole entry): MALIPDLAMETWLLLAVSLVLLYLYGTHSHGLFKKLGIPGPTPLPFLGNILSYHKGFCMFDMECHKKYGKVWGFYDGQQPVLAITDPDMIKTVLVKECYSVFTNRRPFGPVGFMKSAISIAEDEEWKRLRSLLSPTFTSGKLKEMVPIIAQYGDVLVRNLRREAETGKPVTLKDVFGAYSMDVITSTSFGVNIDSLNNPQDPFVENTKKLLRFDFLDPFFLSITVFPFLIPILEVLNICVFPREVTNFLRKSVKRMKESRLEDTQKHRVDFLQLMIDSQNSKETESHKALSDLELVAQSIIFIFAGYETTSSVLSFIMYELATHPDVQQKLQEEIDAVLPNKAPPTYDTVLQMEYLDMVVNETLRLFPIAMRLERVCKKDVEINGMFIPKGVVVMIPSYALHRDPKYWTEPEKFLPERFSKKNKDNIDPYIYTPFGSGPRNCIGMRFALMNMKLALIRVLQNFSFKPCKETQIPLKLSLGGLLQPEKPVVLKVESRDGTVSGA
Chain of Cytochrome P450 2C9 (P11712 whole entry): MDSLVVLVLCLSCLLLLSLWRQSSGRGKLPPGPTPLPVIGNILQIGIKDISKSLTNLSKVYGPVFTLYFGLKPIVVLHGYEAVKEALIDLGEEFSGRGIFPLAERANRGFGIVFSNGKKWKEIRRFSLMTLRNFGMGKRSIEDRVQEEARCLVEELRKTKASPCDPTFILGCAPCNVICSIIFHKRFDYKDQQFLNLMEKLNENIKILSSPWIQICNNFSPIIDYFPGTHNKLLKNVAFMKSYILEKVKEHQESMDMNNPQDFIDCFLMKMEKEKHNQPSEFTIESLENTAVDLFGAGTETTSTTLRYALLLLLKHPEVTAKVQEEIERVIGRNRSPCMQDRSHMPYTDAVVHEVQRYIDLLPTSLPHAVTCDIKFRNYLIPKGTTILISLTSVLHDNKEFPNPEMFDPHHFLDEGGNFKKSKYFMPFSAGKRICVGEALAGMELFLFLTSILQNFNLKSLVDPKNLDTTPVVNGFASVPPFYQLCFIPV

Stability [6]: 107%
IC50 [7]: > 40 µM
EC50 [15]: 0.58 µM
MRT [16]: 4.68 h
IC50 [17]: > 40 µM
Stability [20]: 99.3%
SMILES: Cn1ncc2c(NC(P(=O)(O)O)P(=O)(O)O)nc(-c3cccc(C(=O)Nc4ccc(C(F)(F)F)cc4)c3)nc21
Activity [1]: Active
Activity [2]: 93.2%
Activity [3]: Non-Toxic
Activity [4]: Non-Toxic
Activity [5]: Non-Toxic
Activity [8]: 4.6%
Activity [9]: inactive
Activity [10]: ~50%
Activity [11]: Non-Toxic
Activity [12]: 13.5%
Activity [13]: ~50%
Activity [14]: 199 IU/L
Activity [18]: 32.1%
Activity [19]: Non-Toxic
Activity [21]: 2.55%
Activity [22]: 1.54%
Activity [23]: Active
